# Reference: ChEMBL document CHEMBL1132351, “Synthesis, in vitro pharmacology, and molecular modeling of very potent tacrine-huperzine A hybrids as acetylcholinesterase inhibitors of potential interest for the treatment of Alzheimer's disease” (J Med Chem, 1999)
# Several values for one entry are separate records, joined by “and”; a condition that tells them apart may be missing. Equal entries are not always repeated.
# How the values were obtained:
# [1] = target: T1, Acetylcholinesterase (Bos taurus, UniProt P23795)
# T1 sequence (P23795 whole entry): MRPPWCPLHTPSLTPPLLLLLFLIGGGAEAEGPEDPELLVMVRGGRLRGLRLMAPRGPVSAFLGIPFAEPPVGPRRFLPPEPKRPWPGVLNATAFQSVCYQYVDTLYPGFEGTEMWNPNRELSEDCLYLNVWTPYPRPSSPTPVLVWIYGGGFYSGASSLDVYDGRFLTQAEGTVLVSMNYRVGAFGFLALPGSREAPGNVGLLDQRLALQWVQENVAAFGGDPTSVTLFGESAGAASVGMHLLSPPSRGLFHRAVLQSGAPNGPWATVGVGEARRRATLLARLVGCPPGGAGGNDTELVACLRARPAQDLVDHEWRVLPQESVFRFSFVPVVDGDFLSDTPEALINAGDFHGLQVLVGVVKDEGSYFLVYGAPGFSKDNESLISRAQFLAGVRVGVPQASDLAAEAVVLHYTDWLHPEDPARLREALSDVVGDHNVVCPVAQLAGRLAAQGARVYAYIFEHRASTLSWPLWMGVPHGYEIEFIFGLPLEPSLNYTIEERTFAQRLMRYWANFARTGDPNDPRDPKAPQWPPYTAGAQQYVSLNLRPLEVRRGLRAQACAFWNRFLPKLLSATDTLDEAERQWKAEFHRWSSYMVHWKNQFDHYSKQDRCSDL
# Description: Inhibition of acetylcholinesterase (AChE)activity in bovine erythrocytes
# [2] = target: Cholinesterase (Homo sapiens, UniProt P06276)
# Description: Inhibition of butyrylcholinesterase (BChE) activity in human serum
# [3] = Drug concentration that reaches 50% of antagonism index (AI); No reversion at 10 uM concentration.; assay type: functional
# [4] = Drug concentration that reaches 50% of antagonism index (AI); No reversion at 10 uM concentration; assay type: functional
# Cholinesterase, sequence (P06276 whole entry): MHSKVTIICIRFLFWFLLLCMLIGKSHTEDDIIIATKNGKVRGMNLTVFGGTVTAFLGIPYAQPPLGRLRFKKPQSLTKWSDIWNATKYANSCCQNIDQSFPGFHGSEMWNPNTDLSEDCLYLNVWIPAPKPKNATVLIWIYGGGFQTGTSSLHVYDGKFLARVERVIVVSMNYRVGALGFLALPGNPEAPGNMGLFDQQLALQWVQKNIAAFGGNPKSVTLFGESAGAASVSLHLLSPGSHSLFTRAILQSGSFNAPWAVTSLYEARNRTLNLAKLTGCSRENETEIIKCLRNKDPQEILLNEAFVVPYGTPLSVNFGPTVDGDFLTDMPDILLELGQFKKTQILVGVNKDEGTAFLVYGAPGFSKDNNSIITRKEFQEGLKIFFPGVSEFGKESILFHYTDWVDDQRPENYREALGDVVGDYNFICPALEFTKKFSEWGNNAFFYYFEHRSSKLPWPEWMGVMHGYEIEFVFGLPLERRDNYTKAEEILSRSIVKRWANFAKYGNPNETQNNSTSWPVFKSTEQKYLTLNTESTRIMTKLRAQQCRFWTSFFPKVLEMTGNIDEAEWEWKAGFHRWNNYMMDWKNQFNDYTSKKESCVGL
SMILES,IC50 [1],IC50 [2],AI50 [3],AI50 [4]
CC1=CC2Cc3nc4cccc(F)c4c(N)c3C(C1)C2 (racemic),0.0314 µM,0.543 µM,–,–
CC(C)C1=CC2Cc3nc4ccccc4c(N)c3C(C1)C2 (racemic),0.103 µM,–,–,–
"CCC1=CC2Cc3nc4ccccc4c(N)c3C(C1)C2 (single isomer, unassigned; (-))",0.0274 µM,0.0633 µM,–,–
CCC1=CC2Cc3nc4cc(C)ccc4c(N)c3C(C1)C2 (centres undefined) [listing 1 of 2 here],–,0.115 µM and 0.347 µM,–,–
CC1=CC2Cc3nc4ccccc4c(N)c3C(C1)C2 (racemic),0.065 µM,0.126 µM,–,–
Nc1c2c(nc3ccccc13)CC1C=C(c3ccccc3)CC2C1 (racemic),0.126 µM,–,No reversion,–
"CCC1=CC2Cc3nc4ccccc4c(N)c3C(C1)C2 (single isomer, unassigned; (+))",0.888 µM,0.109 µM,–,–
CC1=CC2Cc3nc4cc(C)ccc4c(N)c3C(C1)C2 (racemic),–,0.449 µM,–,–
CC1=C[C@@H]2Cc3nc4cc(F)ccc4c(N)c3[C@H](C1)C2 (racemic),0.0085 µM,0.197 µM,–,–
C/C=C1\[C@H]2C=C(C)C[C@]1(N)c1ccc(=O)[nH]c1C2 [HUPERZINE A],–,> 100 µM,–,–
CCC1=CC2Cc3nc4cc(C)ccc4c(N)c3C(C1)C2 (racemic),0.012 µM,0.208 µM,–,–
CC(C)(C)C1=CC2Cc3nc4ccccc4c(N)c3C(C1)C2 (racemic),0.267 µM,–,–,–
CCC1=CC2Cc3nc4ccccc4c(N)c3C(C1)C2 (racemic),0.0385 µM,0.0793 µM,–,–
"CC1=CC2Cc3nc4ccccc4c(N)c3C(C1)C2 (single isomer, unassigned; (+))",0.329 µM,0.316 µM,–,–
C=CCC1=CC2Cc3nc4ccccc4c(N)c3C(C1)C2 (racemic),0.15 µM,–,No reversion at 10 uM concentration,–
"CC1=CC2Cc3nc4ccccc4c(N)c3C(C1)C2 (single isomer, unassigned; (-))",–,0.089 µM,–,–
CCC1=CC2Cc3nc4cccc(C)c4c(N)c3C(C1)C2 (racemic),0.0298 µM,0.512 µM,–,–
CCC1=CC2Cc3nc4cc(C)ccc4c(N)c3C(C1)C2 (centres undefined) [listing 2 of 2 here],–,–,–,No reversion
